Calls of active or inactive are those of the source. No cut-off for these calls is given here.
Key:
HCT-116 [1] = test: Reduction of insulin-induced HIF-1 alpha target gene expression in human HCT116 cells assessed as decrease in VEGF expression at 10 uM by RT-PCR analysis; assay type: functional
[2] = Cytotoxicity against human HCT116 cells at 10 uM; assay type: cell-based; settings: hct-116, 10 µM
HCT-116 [3] = test: Reduction of insulin-induced HIF-1 alpha expression in human HCT116 cells at 10 uM by western blot analysis; assay type: functional; settings: for inhibition at 10 µM: Homo sapiens, HCT-116
HCT-116 [4] = test: Reduction of insulin-induced HIF-1 alpha target gene expression in human HCT116 cells assessed as decrease in Glut-1 expression at 10 uM by RT-PCR analysis; assay type: functional; settings: for inhibition at 10 µM: Homo sapiens, HCT-116
HCT-116 [5] = test: Reduction of insulin-induced HIF-1 alpha expression in human HCT116 cells at 3 uM by western blot analysis; assay type: functional, cell-based
[6] = Cytotoxicity against human HCT116 cells at 3 uM; assay type: cell-based; settings: hct-116, 3 µM
[7] = Cytotoxicity against human HCT116 cells at 30 uM; assay type: cell-based; settings: hct-116, 30 µM
HCT-116 [8] = test: Reduction of insulin-induced HIF-1 alpha expression in human HCT116 cells at 30 uM by western blot analysis; assay type: functional
HCT-116 [9] = test: Reduction of insulin-induced HIF-1 alpha target gene expression in human HCT116 cells assessed as decrease in VEGF expression at 30 uM by RT-PCR analysis; assay type: functional
HCT-116 [10] = test: Reduction of insulin-induced HIF-1 alpha target gene expression in human HCT116 cells assessed as decrease in Glut-1 expression at 30 uM by RT-PCR analysis; assay type: functional

For `CSc1c(C)c(SC)n2ccncc12` [listing 1 of 2 here], the inhibition (HCT-116 [1]) was “inactive”.

In the case of `CSc1c(Cc2ccc(C)cc2)c(SC)n2ccncc12.Cl`, the Activity [2] is reported as “Toxic”.

In the case of `CCCCc1c(SC)c2cnccn2c1SC.Cl`, the Activity [2] is reported as “Non-toxic”.

For `CSc1cc(SC)n2ccncc12.Cl`, the Activity [2] was “Non-toxic”.

In the case of `CSc1c(C)c(SC)n2ccncc12` [listing 2 of 2 here], the inhibition at 10 µM (HCT-116 [3]) is reported as 37% and the inhibition at 10 µM (HCT-116 [4]) is reported as 14%.

For `CSc1c(SC)c2cnccn2c1SC.Cl`, the inhibition at 10 µM (HCT-116 [3]) was 6% and the Activity [2] was “Non-toxic”.

For `CC[C@@]1(O)C(=O)OCc2c1cc1n(c2=O)Cc2cc3c(CN(C)C)c(O)ccc3nc2-1` [TOPOTECAN], the inhibition (HCT-116 [5]) was “Active” and the Activity [6] was “Non-toxic”.

For `S=c1ssc(-c2cnccn2)c1Cc1ccccc1`, the Activity [7] was “Non-toxic” and the inhibition at 30 µM (HCT-116 [8]) was 41%.

In the case of `CCc1c(-c2cnccn2)ssc1=S`, the Activity [7] is reported as “Non-toxic”.

In the case of `Cc1ccc(Cc2c(-c3cnccn3)ssc2=S)cc1`, the Activity [7] is reported as “Non-toxic”.

With `Cc1c(-c2cnccn2)ssc1=S` [OLTIPRAZ] the inhibition at 30 µM (HCT-116 [9]) was 36%, the Activity [7] was “Non-toxic” and the inhibition at 30 µM (HCT-116 [10]) was 59%. For the same compound, the inhibition at 30 µM (HCT-116 [8]) was 48%.

With `S=c1ssc(-c2cnccn2)c1Cc1ccc(Cl)cc1` the Activity [7] was “Non-toxic”.

In the case of `COc1ccc(Cc2c(-c3cnccn3)ssc2=S)cc1`, the Activity [7] is reported as “Non-toxic”.

With `CCCc1c(SC)c2cnccn2c1SC.Cl` the inhibition at 10 µM (HCT-116 [3]) was 90%, the inhibition (HCT-116 [1]) was “Active” and the inhibition (HCT-116 [4]) was “Active”. The Activity [2] was “Non-toxic”.

For `CCc1c(SC)c2cnccn2c1SC.Cl`, the inhibition at 10 µM (HCT-116 [3]) was 86% and the Activity [2] was “Non-toxic”.

For `CCCCc1c(-c2cnccn2)ssc1=S`, the Activity [7] was “Non-toxic” and the inhibition at 30 µM (HCT-116 [8]) was 80%.

In the case of `S=c1ssc(-c2cnccn2)c1-c1ccccc1`, the inhibition (HCT-116 [9]) is reported as “Active”, the Activity [7] is reported as “Non-toxic” and the inhibition (HCT-116 [10]) is reported as “Active”. For the same compound, the inhibition at 30 µM (HCT-116 [8]) was 8%.

For `CSc1c(-c2ccccc2)c(SC)n2ccncc12.Cl`, the inhibition at 10 µM (HCT-116 [3]) was 3%, the inhibition (HCT-116 [1]) was “Active” and the inhibition (HCT-116 [4]) was “Active”. For the same compound, the Activity [2] was “Non-toxic”.

With `OCc1ccc(-c2nn(Cc3ccccc3)c3ccccc23)o1` the inhibition (HCT-116 [5]) was “Active” and the Activity [6] was “Non-toxic”.

For `S=c1cc(-c2cnccn2)ss1`, the Activity [7] was “Toxic”.

With `CSc1c(CCc2ccccc2)c(SC)n2ccncc12.Cl` the inhibition at 10 µM (HCT-116 [3]) was 87% and the Activity [2] was “Toxic”.

In the case of `CSc1c(C)c(SC)n2ccncc12.Cl`, the “inhibition (INH)” value (HCT-116 [3]) is reported as 37%, the “inhibition (INH)” value (HCT-116 [4]) is reported as 14% and the Activity [2] is reported as “Non-toxic”.

In the case of `CSc1c(Cc2ccccc2)c(SC)n2ccncc12.Cl`, the inhibition at 10 µM (HCT-116 [3]) is reported as 81%, the inhibition at 10 µM (HCT-116 [1]) is reported as 77% and the inhibition at 10 µM (HCT-116 [4]) is reported as 92%. For the same compound, the Activity [2] was “Non-toxic”.

For `CCCc1c(-c2cnccn2)ssc1=S`, the inhibition at 30 µM (HCT-116 [9]) was 70%, the Activity [7] was “Non-toxic” and the inhibition at 30 µM (HCT-116 [10]) was 86%. For the same compound, the inhibition at 30 µM (HCT-116 [8]) was 76%.

With `CSc1c(Cc2ccc(Cl)cc2)c(SC)n2ccncc12.Cl` the Activity [2] was “Toxic”.

In the case of `S=c1ssc(-c2cnccn2)c1CCc1ccccc1`, the Activity [7] is reported as “Non-toxic” and the inhibition at 30 µM (HCT-116 [8]) is reported as 65%.

In the case of `COc1ccc(Cc2c(SC)c3cnccn3c2SC)cc1.Cl`, the Activity [2] is reported as “Toxic”.
